MIC and ED50 data for 3 molecules are collected here from patent US4753953A, “Pyridonecarboxylic acid derivatives and antibacterial pharmaceutical compositions thereof” (priority 1985, dated 1988).

Experiment [1] relates to Peptococcus magnus KY 017. As to the kind of experiment: MIC, in vitro antibacterial activity (standard strains). The class given is cell-based. The conditions noted are these: Finegoldia magna, KY017; 10^6 cells/ml; Gram +; read-out: MIC.
In experiment [2] the test system is MR S. aureus KYB 623. As to the kind of experiment: MIC of the infecting strain MR S. aureus KYB 623. The class given is cell-based. As to conditions: Staphylococcus aureus; Table 3, strain of the mouse infection.
The subject of experiment [3] is MR S. aureus KYB 623. Put plainly: Therapeutic efficacy against systemic infections in mice, MR S. aureus KYB 623. As to conditions: Staphylococcus aureus, in Mus musculus, po, 1 h.
For experiment [4], the system named is Enterobacter cloacae IID 977. Put plainly: MIC, in vitro antibacterial activity (standard strains). The class given is cell-based. As to conditions: Enterobacter cloacae, IID977; 10^6 cells/ml; Gram -; read-out: MIC.
For experiment [5], the system named is S. pneumoniae S-4288. Put plainly: Therapeutic efficacy against systemic infections in mice, S. pneumoniae S-4288. As to conditions: Streptococcus pneumoniae, S4288, in Mus musculus, po, 1 h.
For a further experiment, the system named is Shigella sonnei IID 969. As to the kind of experiment: MIC, in vitro antibacterial activity (standard strains). The class given is cell-based. As to conditions: Shigella sonnei, IID969; 10^6 cells/ml; Gram -; read-out: MIC. On the procedure: Minimal inhibitory concentrations (MICs) were determined in accordance with the method recommended by Japan Society of Chemotherapy.

The test system of experiment [6] is Pseudomonas aeruginosa V-1. The description is as above. As to conditions: Pseudomonas aeruginosa, V1; 10^6 cells/ml; Gram -; read-out: MIC. The class given is cell-based.
In experiment [7] the test system is Yersinia enterocolitica IID 981. Described as above. It counts as cell-based. As to conditions: Yersinia enterocolitica, IID981; 10^6 cells/ml; Gram -; read-out: MIC.
For a further experiment, the system named is B. fragilis 25285. Described as above. The class given is cell-based, Bacteroides fragilis. As to conditions: Bacteroides fragilis, 25285; 10^6 cells/ml; Gram -; read-out: MIC.
Experiment [8] relates to Citrobacter freundii IID 976. The description is as above. It counts as cell-based. As to conditions: Citrobacter freundii, IID976; 10^6 cells/ml; Gram -; read-out: MIC.
In experiment [9] the test system is Acinetobacter anitratus IID 876. Described as above. It counts as cell-based. The conditions noted are these: Acinetobacter calcoaceticus, IID876; 10^6 cells/ml; Gram -; read-out: MIC.
The test system of experiment [10] is Propionibacterium acens 11828. The description is as above. It counts as cell-based. The conditions noted are these: Propionibacterium, 11828; 10^6 cells/ml; Gram +; read-out: MIC.
Another experiment deals with P. maltophilia GIFU 2491. Described as above. It counts as cell-based. As to conditions: Stenotrophomonas maltophilia, GIFU2491; 10^6 cells/ml; Gram -; read-out: MIC.
In experiment [11] the test system is S. pneumoniae S-4288. Put plainly: MIC of the infecting strain S. pneumoniae S-4288. As to conditions: Streptococcus pneumoniae, S4288; Table 4, strain of the mouse infection. It counts as cell-based.
In experiment [12] the test system is Streptococcus pyogenes (S-8). As to the kind of experiment: MIC, in vitro antibacterial activity (standard strains). The conditions noted are these: Streptococcus pyogenes; 10^6 cells/ml; Gram +; read-out: MIC. The class given is cell-based.
The test system of a further experiment is F. varium KYA 8501. Described as above. The class given is cell-based. As to conditions: Fusobacterium varium, KYA8501; 10^6 cells/ml; Gram -; read-out: MIC.
The test system of experiment [13] is Fusobacterium mortiferum 4249. The experiment is described as above. The class given is cell-based. The conditions noted are these: Fusobacterium mortiferum, 4249; 10^6 cells/ml; Gram -; read-out: MIC.
The subject of experiment [14] is E. coli ML 4707. As to the kind of experiment: Therapeutic efficacy against systemic infections in mice, E. coli ML 4707. As to conditions: Escherichia coli, ML4707, in Mus musculus, po, 1 h.
Experiment [15] concerns E. coli ML 4707. Put plainly: MIC, in vitro antibacterial activity (standard strains). The conditions noted are these: Escherichia coli. The class given is cell-based, Escherichia coli.
For the next experiment, the system named is S. epidermidis IID 866. Described as above. It counts as cell-based. The conditions noted are these: Staphylococcus epidermidis, IID866; 10^6 cells/ml; Gram +; read-out: MIC.
Experiment [16] concerns Escherichia coli NIHJ JC-2. The experiment is described as above. The conditions noted are these: Escherichia coli, NIHJJC2. It counts as cell-based.
[17] abbreviates: ML4707, 10^6 cells/ml, Gram -, Table 1, read-out: MIC.
[18] abbreviates: ML4707, Table 2, strain of the mouse infection, read-out: MIC.
[19] abbreviates: 10^6 cells/ml, Gram -, read-out: MIC.

Converted amounts (≈) assume the structure as drawn. Read-outs that look alike come from different tables or passages of the source.

The MIC is the lowest concentration found to suppress growth. By ED50 is commonly meant the dose at which the effect has come halfway, by size or by number of responders. With `C[C@H]1CN(c2c(F)cc3c(=O)c(C(=O)O)cn(C4CC4)c3c2Cl)C[C@H]1N` (relative stereo) [Example 16, 7-(cis-3-Amino-4-methyl-1-pyrrolidinyl)-8-chloro-1-cyclopropyl-6-fluoro-1,4-dihydro-4-oxo-3-quinolinecarboxylic acid], the minimum inhibitory concentration (MIC) in experiment [1] turned out to be 0.05 µg/mL (≈ 0.132 µM); in the experiment with MR S. aureus KYB 623 [2], 0.025 µg/mL; in experiment [4] it was 0.05 µg/mL (≈ 0.132 µM); with Shigella sonnei IID 969 it was 0.0063 µg/mL (≈ 0.0166 µM); in experiment [6], 0.1 µg/mL (≈ 0.263 µM); in [7], 0.05 µg/mL (≈ 0.132 µM). In addition, the MIC in the experiment with B. fragilis 25285 was 0.05 µg/mL (≈ 0.132 µM); in experiment [8] it was 0.025 µg/mL (≈ 0.0658 µM); in experiment [9] it was 0.025 µg/mL (≈ 0.0658 µM); in experiment [10] it was 0.78 µg/mL (≈ 2.05 µM); with P. maltophilia GIFU 2491, 0.05 µg/mL (≈ 0.132 µM); with S. pneumoniae S-4288 [11], 0.1 µg/mL. Further, the minimum inhibitory concentration (MIC) in [12] turned out to be 0.1 µg/mL (≈ 0.263 µM); in the experiment with F. varium KYA 8501 it was 0.78 µg/mL (≈ 2.05 µM); in experiment [13], 0.1 µg/mL (≈ 0.263 µM); with E. coli ML 4707 [15] (setting [17]) it was 0.0063 µg/mL (≈ 0.0166 µM); in the experiment on E. coli ML 4707 [15] (setting [18]), 0.0125 µg/mL (≈ 0.0329 µM); in the experiment on S. epidermidis IID 866, 0.05 µg/mL (≈ 0.132 µM). Moreover, the MIC in experiment [16] (setting [19]) amounted to 0.0063 µg/mL (≈ 0.0166 µM). Further, the ED50 in the experiment on MR S. aureus KYB 623 [3] is 3.7 mg/kg; with S. pneumoniae S-4288 [5] it was 12.1 mg/kg; in the experiment with E. coli ML 4707 [14], 1 mg/kg.
On to `C[C@@H]1CN(c2c(F)cc3c(=O)c(C(=O)O)cn(C4CC4)c3c2Cl)C[C@H]1N` (relative stereo) [Example 17, 7-(trans-3-Amino-4-methyl-1-pyrrolidinyl)-8-chloro-1-cyclopropyl-6-fluoro-1,4-dihydro-4-oxo-3-quinolinecarboxylic acid], for which the MIC in [1] came to 0.05 µg/mL (≈ 0.132 µM); in the experiment on MR S. aureus KYB 623 [2] it was 0.0125 µg/mL; in [4] it was 0.05 µg/mL (≈ 0.132 µM); with Shigella sonnei IID 969, 0.0063 µg/mL (≈ 0.0166 µM); in [6] it was 0.1 µg/mL (≈ 0.263 µM); in [7] it was 0.025 µg/mL (≈ 0.0658 µM). Also, the minimum inhibitory concentration (MIC) was 0.05 µg/mL (≈ 0.132 µM) in the experiment on B. fragilis 25285; 0.0125 µg/mL (≈ 0.0329 µM) in experiment [8]; 0.025 µg/mL (≈ 0.0658 µM) in experiment [9]; 0.78 µg/mL (≈ 2.05 µM) in experiment [10]; 0.05 µg/mL (≈ 0.132 µM) with P. maltophilia GIFU 2491; 0.78 µg/mL (≈ 2.05 µM) in the experiment on F. varium KYA 8501. For the same molecule, the MIC in experiment [13] came to 0.1 µg/mL (≈ 0.263 µM); in the experiment with E. coli ML 4707 [15] (setting [17]), 0.0063 µg/mL (≈ 0.0166 µM); in the experiment on S. epidermidis IID 866, 0.05 µg/mL (≈ 0.132 µM); in [16] (setting [19]), 0.0063 µg/mL (≈ 0.0166 µM). Also, the ED50 in the experiment with MR S. aureus KYB 623 [3] came to 2.1 mg/kg.
`CC1CN(c2c(F)cc3c(=O)c(C(=O)O)cn(C4CC4)c3c2F)CC1N.Cl` (stereo not shown) [Example 11, 7-(3-Amino-4-methyl-1-pyrrolidinyl)-1-cyclopropyl-6,8-difluoro-1,4-dihydro-4-oxo-3-quinolinecarboxylic acid hydrochloride]: the minimum inhibitory concentration (MIC) turned out to be 0.2 µg/mL in [1]; 0.05 µg/mL in experiment [4]; 0.025 µg/mL with Shigella sonnei IID 969; 0.39 µg/mL in [6]; 0.05 µg/mL in [7]; 0.39 µg/mL in the experiment with B. fragilis 25285. Besides, the minimum inhibitory concentration (MIC) is 0.05 µg/mL in experiment [8]; 0.05 µg/mL in experiment [9]; 3.13 µg/mL in experiment [10]; 0.1 µg/mL in the experiment with P. maltophilia GIFU 2491; 0.2 µg/mL in the experiment on S. pneumoniae S-4288 [11]; 1.56 µg/mL in the experiment with F. varium KYA 8501. For the same molecule, the MIC in experiment [13] stood at 0.39 µg/mL; with E. coli ML 4707 [15] (ML4707), 0.0125 µg/mL; in the experiment on E. coli ML 4707 [15] (setting [18]), 0.025 µg/mL; with S. epidermidis IID 866 it was 0.1 µg/mL; in experiment [16] it was 0.0125 µg/mL. Besides, the ED50 in the experiment on S. pneumoniae S-4288 [5] stood at 20.7 mg/kg; with E. coli ML 4707 [14], 1 mg/kg.
